Results published in patent US20230150920A1, “SALTS AND SOLID FORMS OF 4-BROMO-2,5-DIMETHOXYPHENETHYLAMINE” (priority 2021, published 2023).
Counter-ions that a name gives are not always drawn.

Legend:
[1] = Solubility estimate by adding solvent aliquots to weighed solid, dissolution judged visually; conditions: thermodynamic from solid
[2] = Dynamic vapor sorption (DVS) with XRPD of the post-DVS sample; type: physicochemical; conditions: for hygroscopicity based on DVS data / moisture gain by DVS / moisture gain by DVS, equivalent moles of water: 25° C.; for hygroscopicity based on DVS data: 5 to 95% RH; for moisture gain by DVS / moisture gain by DVS, equivalent moles of water: adsorption 5 to 95% RH; for post-DVS XRPD result: XRPD of the post-DVS sample; for DVS desorption weight loss, 85-5% RH: desorption 85-5% RH; for DVS desorption weight loss, 95-85% RH: desorption 95-85% RH; for behaviour on desorption / form change by XRPD of post-DVS sample: desorption 95 to 5% RH; for DVS sorption weight gain, 5-85% RH: sorption 5-85% RH; for DVS sorption weight gain, 85-95% RH: sorption 85-95% RH
Experimental: Dynamic Vapor Sorption (DVS) analysis was carried out using a TA Instruments Q5000 Dynamic Vapor Sorption analyzer. The instrument was calibrated with standard weights and a sodium bromide standard for humidity. Approximately 10-25 mg of sample was loaded into a metal-coated quartz pan for analysis. The sample was analyzed at 25° C. with a maximum equilibration time of one hour in 10% relative humidity (RH) steps from 5 to 95% RH (adsorption cycle) and from 95 to 5% RH (desorption cycle). The movement from one step to the next occurred either after satisfying the equilibrium criterion of 0.01% weight change or, if the equilibrium criterion was not met, after one hour. The percent weight change values were calculated using Microsoft Excel.
(§1) The DVS analysis was carried out using a TA Instruments Q5000 Dynamic Vapor Sorption analyzer. 13.5 mg of sample was loaded into a metal-coated quartz pan for analysis. After equilibration to 5% relative humidity (RH), the sample was analyzed at 25° C. in 10% RH steps from 5 to 95% RH (adsorption cycle) and from 95 to 5% RH (desorption cycle). The movement from one step to the next occurred either after satisfying the equilibrium criterion of 0.01% weight change in 5 minutes or, if the equilibrium criterion was not met, after 90 minutes. The percent weight change values are calculated using Microsoft Excel®.
as §1, with “DVS analyses were” for “DVS analysis was”, “analyzer. Approximately 7-11” for “analyzer. 13.5”, “equilibration at” for “equilibration to”, “values were” for “values are”
as §1, with “analyzer. Approximately 2” for “analyzer. 13.5”, “equilibration at” for “equilibration to”, “values were” for “values are”

[3] = Dynamic vapor sorption/desorption (DVS), hygroscopicity; type: physicochemical; conditions: for Water uptake (5-85% RH) %: 5-85% RH part of sorption; for Water uptake (85-95% RH) %: 85-95% RH part of sorption; for Hygroscopicity: grade in words, from DVS; for Water uptake (5-95% RH) %: total
Experimental: The active pharmaceutical ingredient (API), 4-bromo-2,5-dimethoxyphenethylamine hydrochloride, is characterized to evaluate its physical properties. The evaluation is performed by X-ray powder diffraction (XRPD), polarized light microscopy (PLM), differential scanning calorimetry (DSC), thermogravimetry (TG), dynamic vapor sorption/desorption (DVS), and/or solubility testing in organic solvents, water, and mixed solvent systems. XRPD data are used to assess crystallinity. PLM data are used to evaluate crystallinity and particle size/morphology. DSC data are used to evaluate melting point, thermal stability, and crystalline form conversion. TG data are used to evaluate if the API is a solvate or hydrate, and to evaluate thermal stability. DVS data are used to evaluate hygroscopicity of the API and if hydrates can be formed at high relative humidity.
The form characterized in FIGS. 1 and 2 is designated as Form A herein. […] A sharp endotherm at 238° C. in the DSC thermogram is attributed to melting.

[4] = Estimated solubilities of 2C-B HCl in solvents; conditions: thermodynamic from solid
[5] = Deliquescence at 75% RH at ambient temperature; type: physicochemical
[6] = Experimental: Solubilities in water were estimated for the majority of the salts identified during screening. The experiments were carried out by adding water in aliquots to weighed portions of solid. […] Values are reported as “≥” if complete dissolution was observed upon the first aliquot.
[7] = MeOH/CHCl3 50/50, organic solvent or mixture
[8] = acetone, organic solvent or mixture
[9] = acetone/H2O 80/20, organic solvent or mixture
[10] = several days at 75% RH at ambient temperature

COc1cc(CCN)c(OC)cc1Br [2C-B.HCl, 4-bromo-2,5-dimethoxyphenethylamine hydrochloride]
solubility [1, 7]: 41 mg/mL | solubility [1, 8]: < 2 mg/mL | solubility [1, 9]: > 79 mg/mL | solubility ([1]; acetonitrile, organic solvent or mixture): < 1 mg/mL | solubility ([1]; ethanol, organic solvent or mixture): 13 mg/mL | solubility ([1]; ethyl acetate, organic solvent or mixture): < 2 mg/mL | solubility ([1]; isopropanol, organic solvent or mixture): < 2 mg/mL | solubility ([1]; methanol, organic solvent or mixture): 41 mg/mL | solubility ([1]; tetrahydrofuran, organic solvent or mixture): < 2 mg/mL | solubility ([1]; water): 34 mg/mL

COc1cc(CCN)c(OC)cc1Br.Cl [2C-B HCl, 4-bromo-2,5-dimethoxyphenethylamine HCl]
post-DVS XRPD ([2]; solid form after DVS cycle): Form A | DVS Sorption: weight gain ([3]; 5-95% RH): 5-95% RH: 0.9% gain | DVS Desorption: weight loss ([3]; 95-5% RH): 95-5% RH: 1.0% loss | solubility ([4]; ACN, organic solvent or mixture): < 1 mg/mL | solubility ([4]; EtOAc, organic solvent or mixture): < 2 mg/mL | solubility ([4]; EtOH, organic solvent or mixture): 13 mg/mL | solubility ([4]; H2O, water): 34 mg/mL | solubility ([4]; IPA, organic solvent or mixture): < 2 mg/mL | solubility ([4]; MeOH, organic solvent or mixture): 41 mg/mL | solubility [4, 7]: 41 mg/mL | solubility ([4]; THF, organic solvent or mixture): < 2 mg/mL | solubility [4, 8]: < 2 mg/mL | solubility [4, 9]: ≥ 79 mg/mL

2C-B glycolate
hygroscopicity based on DVS data [2]: moderately hygroscopic | moisture gain by DVS [2]: 3.6% | moisture gain by DVS, equivalent moles of water [2]: 0.7 mol | post-DVS XRPD result [2]: Consistent with Glycolate | moisture gain by DVS above 85% RH ([2]; above 85% RH): 2.7% | DVS desorption weight loss, 85-5% RH [2]: 85-5% RH: 1.1% loss | DVS desorption weight loss, 95-85% RH [2]: 95-85% RH: 2.6% loss | behaviour on desorption / form change by XRPD of post-DVS sample [2]: form change is not apparent by XRPD | DVS desorption total loss [2]: Total loss: 3.7% | DVS sorption weight gain, 5-85% RH [2]: 5-85% RH: 0.9% gain | DVS sorption weight gain, 85-95% RH [2]: 85-95% RH: 2.7% gain | DVS sorption total gain [2]: Total gain: 3.6% | Water uptake (5-85% RH) % [3]: 0.9% | Water uptake (85-95% RH) % [3]: (5-85), 2.7 (85-95) % | Hygroscopicity: weight gain ([3]; <85% RH): RH: 0.9% | Hygroscopicity: weight gain ([3]; >85% RH): RH: 2.7% gain | Hygroscopicity [3]: Mod. hygroscopic; <85% | Water uptake (5-95% RH) % ([3]; 5-95% RH): 3.6% | deliquescence ([5]; at 75% RH): Did not deliquesce | deliquescence [5, 10]: not observed

2C-B malate
hygroscopicity based on DVS data [2]: slightly hygroscopic | moisture gain by DVS [2]: 1.6% | moisture gain by DVS, equivalent moles of water [2]: approximately 0.4 moles | post-DVS XRPD result [2]: Consistent with Malate | DVS desorption weight loss, 85-5% RH [2]: 85-5% RH: 0.6% loss | DVS desorption weight loss, 95-85% RH [2]: 95-85% RH: 1.0% loss | behaviour on desorption / form change by XRPD of post-DVS sample [2]: all the gained moisture is lost without form change | DVS desorption total loss [2]: Total loss: 1.6% | DVS sorption weight gain, 5-85% RH [2]: 5-85% RH: 0.6% gain | DVS sorption weight gain, 85-95% RH [2]: 85-95% RH: 1.0% gain | DVS sorption total gain [2]: Total gain: 1.6% | Water uptake (5-85% RH) % [3]: 0.6% | Water uptake (85-95% RH) % [3]: (5-85); 1 (85-95) % | Hygroscopicity: weight gain ([3]; <85% RH): RH: 0.6% | Hygroscopicity: weight gain ([3]; >85% RH): RH: 1.0% gain | Hygroscopicity [3]: Slightly | Water uptake (5-95% RH) % ([3]; 5-95% RH): 1.6% | deliquescence ([5]; at 75% RH): Did not deliquesce | deliquescence [5, 10]: not observed | Kinetic water solubility [6]: 6 mg/mL | estimated kinetic solubility in water ([6]; room temperature, visually determined): 6 mg/mL | aqueous solubility (kinetic) ([6]; water, kinetic estimate): 6 mg/mL aqueous | Estimated kinetic aqueous solubility ([6]; water, room temperature, * = a few particulates/flakes remaining (see comments)): 6 mg/mL
